Experimental data: US9616129B2, “Compositions and methods for potentiating immune response, enhancing immunotherapy, and increasing vaccine potency” (Nitor Therapeutics, priority 2013, dated 2017)

Columns and labels:
human TLR3 = target: T1, human TLR3 (Homo sapiens, UniProt O15455); experiment: TLR ligand screening, NF-κB SEAP reporter in HEK293 cells expressing TLR3; type: cell-based; conditions: one concentration: NTR001 10 uM, Inosine 100 uM; FIG. 2
T1 construct: expressed in transfected cells; host or cells: HEK293
T1 sequence (O15455 24-904): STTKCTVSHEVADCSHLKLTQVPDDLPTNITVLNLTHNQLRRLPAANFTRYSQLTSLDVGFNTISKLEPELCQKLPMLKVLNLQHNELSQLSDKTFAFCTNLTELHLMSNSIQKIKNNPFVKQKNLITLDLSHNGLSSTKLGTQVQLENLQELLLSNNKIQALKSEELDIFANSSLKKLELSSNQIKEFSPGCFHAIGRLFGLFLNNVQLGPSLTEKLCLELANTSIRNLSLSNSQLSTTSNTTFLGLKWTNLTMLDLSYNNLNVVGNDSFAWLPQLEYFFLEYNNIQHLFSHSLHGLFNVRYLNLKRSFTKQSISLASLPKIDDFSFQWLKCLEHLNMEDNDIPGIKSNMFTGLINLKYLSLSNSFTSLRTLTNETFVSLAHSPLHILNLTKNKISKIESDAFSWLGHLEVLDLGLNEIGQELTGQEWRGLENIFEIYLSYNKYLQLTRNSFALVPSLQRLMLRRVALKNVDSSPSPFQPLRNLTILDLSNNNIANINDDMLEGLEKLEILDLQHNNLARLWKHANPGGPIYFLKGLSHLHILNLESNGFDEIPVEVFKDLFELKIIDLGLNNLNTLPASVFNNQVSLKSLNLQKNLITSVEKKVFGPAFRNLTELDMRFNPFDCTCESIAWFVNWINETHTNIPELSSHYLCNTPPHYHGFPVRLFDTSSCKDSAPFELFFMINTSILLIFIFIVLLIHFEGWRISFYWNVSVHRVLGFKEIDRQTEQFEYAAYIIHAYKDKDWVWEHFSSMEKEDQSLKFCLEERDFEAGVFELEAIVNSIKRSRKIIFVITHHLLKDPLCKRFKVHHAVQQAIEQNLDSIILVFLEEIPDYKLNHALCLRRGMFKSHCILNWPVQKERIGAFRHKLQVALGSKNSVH
Protocol: (§1) TLR stimulation is tested by assessing NF-κB activation in HEK293 cells expressing a given TLR. The Secreted Embryonic Alkaline Phosphatase (SEAP) reporter is under the control of a promoter inducible by the transcription factor NF-κB. This reporter gene allows the monitoring of signaling through the TLR, based on the activation of NF-κB. The compounds are evaluated at one concentration and compared to control ligands. This step is performed in triplicate.

human TLR4 = target: T2, human TLR4 (Homo sapiens, UniProt O00206); experiment: TLR ligand screening, NF-κB SEAP reporter in HEK293 cells expressing TLR4; type: cell-based; conditions: one concentration: Guanosine 100 uM, NTR001 10 uM, Inosine 100 uM; FIG. 2
T2 construct: expressed in transfected cells; host or cells: HEK293
Protocol: as §1

human TLR5 = target: T3, human TLR5 (Homo sapiens, UniProt O60602); experiment: TLR ligand screening, NF-κB SEAP reporter in HEK293 cells expressing TLR5; type: cell-based; conditions: one concentration: NTR001 10 uM, Inosine 100 uM; FIG. 2
T3 construct: expressed in transfected cells; host or cells: HEK293
Protocol: as §1

human TLR8 = target: T4, human TLR8 (Homo sapiens, UniProt Q9NR97); experiment: TLR ligand screening, NF-κB SEAP reporter in HEK293 cells expressing TLR8; type: cell-based; conditions: one concentration: NTR001 10 uM, Inosine 100 uM; FIG. 2
T4 construct: expressed in transfected cells; host or cells: HEK293
T4 sequence (Q9NR97 27-1041): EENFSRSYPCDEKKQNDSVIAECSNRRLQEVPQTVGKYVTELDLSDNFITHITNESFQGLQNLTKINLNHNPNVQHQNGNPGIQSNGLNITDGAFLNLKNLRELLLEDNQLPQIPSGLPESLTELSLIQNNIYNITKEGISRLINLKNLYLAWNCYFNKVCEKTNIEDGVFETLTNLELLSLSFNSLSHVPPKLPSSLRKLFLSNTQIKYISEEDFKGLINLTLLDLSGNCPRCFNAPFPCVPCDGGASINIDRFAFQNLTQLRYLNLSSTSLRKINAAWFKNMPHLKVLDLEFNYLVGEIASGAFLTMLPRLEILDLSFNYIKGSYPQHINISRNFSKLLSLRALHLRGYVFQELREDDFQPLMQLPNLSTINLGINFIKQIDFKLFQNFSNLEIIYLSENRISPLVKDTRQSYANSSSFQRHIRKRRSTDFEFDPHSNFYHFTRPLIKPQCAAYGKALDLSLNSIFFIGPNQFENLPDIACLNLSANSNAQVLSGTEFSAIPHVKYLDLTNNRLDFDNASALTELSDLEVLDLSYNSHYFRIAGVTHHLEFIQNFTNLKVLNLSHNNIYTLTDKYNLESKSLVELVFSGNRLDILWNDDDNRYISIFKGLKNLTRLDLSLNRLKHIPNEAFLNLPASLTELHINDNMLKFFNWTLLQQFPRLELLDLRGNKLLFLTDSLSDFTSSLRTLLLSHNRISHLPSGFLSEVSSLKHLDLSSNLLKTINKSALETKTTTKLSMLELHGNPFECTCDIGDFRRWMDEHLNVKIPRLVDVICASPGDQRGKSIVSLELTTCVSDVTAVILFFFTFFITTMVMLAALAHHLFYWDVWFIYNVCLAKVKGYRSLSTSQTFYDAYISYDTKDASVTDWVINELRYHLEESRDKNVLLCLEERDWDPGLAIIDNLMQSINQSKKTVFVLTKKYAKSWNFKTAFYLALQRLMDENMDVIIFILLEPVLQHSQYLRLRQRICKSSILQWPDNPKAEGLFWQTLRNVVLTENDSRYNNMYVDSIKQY
Protocol: as §1

tetanus toxoid vaccine = experiment: Tetanus toxoid vaccine efficacy study (adjuvant) in mice; type: in vivo; conditions: compared to vehicle treated group
Protocol: Tetanus toxoid (TT) was used to vaccinate mice thrice, two weeks apart. Mice were treated by oral administration of compounds NTR001 and NTR002 and serum was collected at various time points for antibody titer and interferon-g analysis. Mice in Groups 2-6 (Table 2) are vaccinated subcutaneously with 0.1 ml tetanus toxoid vaccine on DAYS 0, 14 and 28. Mice in Group 1 (Table 1) received no vaccine. Antibody titers for DAYS 38 are determined by ELISA using tetanus toxoid coated microtiter plates and anti-mouse conjugate. Sera from DAY 30 are assayed by ELISA for interferon-g.

B16 tumors = experiment: Syngeneic mouse melanoma model; type: in vivo, C57BL/6 mice
Protocol: Cancer cells were injected subcutaneously in right flank of each mouse, 1×10^4 cells in 0.1 ml PBS with 20% Matrigel. Treatment with the NTR001 was initiated on day 6 after injection of tumor cells. Tumor volume and survival were recorded every 3-4 days.

[1] = system: L. monocytogenes (ATCC Strain35152, hemolytic substrain); experiment: Mouse model of L. monocytogenes infection; type: in vivo; conditions: Balb/c mice infected i.v. with 1×10^6 CFU; treatments per Table 3; FIGS. 7 and 9

T2 sequence (O00206 24-839): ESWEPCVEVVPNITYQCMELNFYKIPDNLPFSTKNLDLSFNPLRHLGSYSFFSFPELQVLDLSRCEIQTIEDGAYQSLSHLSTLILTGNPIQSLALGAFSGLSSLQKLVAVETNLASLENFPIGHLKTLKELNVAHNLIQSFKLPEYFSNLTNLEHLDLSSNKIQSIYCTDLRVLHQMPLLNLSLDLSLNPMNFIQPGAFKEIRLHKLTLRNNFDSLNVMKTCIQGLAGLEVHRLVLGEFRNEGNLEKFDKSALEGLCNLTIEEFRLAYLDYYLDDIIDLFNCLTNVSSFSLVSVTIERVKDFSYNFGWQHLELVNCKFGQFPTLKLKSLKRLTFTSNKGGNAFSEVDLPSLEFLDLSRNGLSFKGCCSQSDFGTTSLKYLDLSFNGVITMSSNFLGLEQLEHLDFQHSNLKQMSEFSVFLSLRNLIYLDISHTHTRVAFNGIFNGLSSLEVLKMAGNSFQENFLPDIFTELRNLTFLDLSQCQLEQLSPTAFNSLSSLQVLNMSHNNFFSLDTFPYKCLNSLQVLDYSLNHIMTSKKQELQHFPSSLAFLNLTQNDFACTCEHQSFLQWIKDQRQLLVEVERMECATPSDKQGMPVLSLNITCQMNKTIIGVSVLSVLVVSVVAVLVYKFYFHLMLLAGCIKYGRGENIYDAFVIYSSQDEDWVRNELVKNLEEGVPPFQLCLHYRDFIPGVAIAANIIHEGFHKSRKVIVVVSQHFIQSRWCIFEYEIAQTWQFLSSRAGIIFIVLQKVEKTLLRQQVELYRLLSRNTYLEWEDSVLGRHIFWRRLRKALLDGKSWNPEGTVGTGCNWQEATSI
T2 sequence (Q9Y6Y9 17-160 partner limits assumed): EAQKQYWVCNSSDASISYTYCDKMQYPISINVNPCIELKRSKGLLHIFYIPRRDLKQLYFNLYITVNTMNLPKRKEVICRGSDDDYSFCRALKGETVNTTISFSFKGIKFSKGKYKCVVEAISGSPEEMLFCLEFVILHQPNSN
T3 sequence (O60602 21-858): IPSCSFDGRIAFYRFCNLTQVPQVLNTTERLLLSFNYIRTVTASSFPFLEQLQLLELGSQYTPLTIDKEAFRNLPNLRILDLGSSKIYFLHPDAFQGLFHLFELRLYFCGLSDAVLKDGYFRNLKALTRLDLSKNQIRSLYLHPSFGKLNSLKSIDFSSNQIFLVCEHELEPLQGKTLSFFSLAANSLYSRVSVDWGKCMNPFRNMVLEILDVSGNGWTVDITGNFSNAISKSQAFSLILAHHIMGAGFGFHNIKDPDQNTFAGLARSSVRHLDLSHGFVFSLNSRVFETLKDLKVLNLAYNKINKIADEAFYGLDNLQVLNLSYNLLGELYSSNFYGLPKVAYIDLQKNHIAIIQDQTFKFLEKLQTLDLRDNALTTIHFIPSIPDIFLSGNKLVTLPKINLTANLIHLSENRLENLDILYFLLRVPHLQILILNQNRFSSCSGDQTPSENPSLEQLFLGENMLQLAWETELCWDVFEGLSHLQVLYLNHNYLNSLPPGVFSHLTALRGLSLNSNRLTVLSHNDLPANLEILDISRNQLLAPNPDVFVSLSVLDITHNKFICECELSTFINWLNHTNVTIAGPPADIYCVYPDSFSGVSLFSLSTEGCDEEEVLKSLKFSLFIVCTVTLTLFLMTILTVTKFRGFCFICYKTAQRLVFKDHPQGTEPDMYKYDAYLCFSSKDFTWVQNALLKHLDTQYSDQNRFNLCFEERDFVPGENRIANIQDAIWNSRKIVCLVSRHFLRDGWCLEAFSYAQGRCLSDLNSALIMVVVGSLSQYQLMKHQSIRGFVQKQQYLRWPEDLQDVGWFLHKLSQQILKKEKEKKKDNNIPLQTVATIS

For OC[C@H]1O[C@@H](n2cnc3c(O)ncnc32)[C@H](O)[C@@H]1O [Inosine], the “stimulatory effect on human TLR3 (NF-κB activation)” value (human TLR3) was “do not exhibit a stimulatory effect”, the “stimulatory effect on human TLR4 (NF-κB activation)” value (human TLR4) was “do not exhibit a stimulatory effect” and the “stimulatory effect on human TLR5 (NF-κB activation)” value (human TLR5) was “do not exhibit a stimulatory effect”. The “stimulatory effect on human TLR8 (NF-κB activation)” value (human TLR8) was “do not exhibit a stimulatory effect”.
In the case of O=c1[nH]cnc2c([C@@H]3N[C@H](CO)[C@@H](O)[C@H]3O)c[nH]c12 [NTR001, 7-[(2S,3S,4R,5R)-3,4-dihydroxy-5-(hydroxymethyl)-2-pyrrolidinyl]-1,5-dihydro-4H-pyrrolo[3,2-d]pyrimidin-4-one], the “stimulatory effect on human TLR3 (NF-κB activation)” value (human TLR3) was “do not exhibit a stimulatory effect”, the “stimulatory effect on human TLR4 (NF-κB activation)” value (human TLR4) was “do not exhibit a stimulatory effect” and the “stimulatory effect on human TLR5 (NF-κB activation)” value (human TLR5) was “do not exhibit a stimulatory effect”. The “stimulatory effect on human TLR8 (NF-κB activation)” value (human TLR8) was “do not exhibit a stimulatory effect”, the serum interferon-g (tetanus toxoid vaccine; day 30, ELISA, high dose group 60 mg/kg p.o., FIG. 4) was “elevated” and the “serum tetanus toxoid antibody titers” value (tetanus toxoid vaccine; day 38, ELISA, p.o. 30 mg/kg (6 days of treatment) and 60 mg/kg (3 days of treatment), FIG. 3) was “significantly elevated”. For the same compound, the tumor volume (B16 tumors; B16 melanoma, C57BL/6 mice, treatment from day 6, FIG. 5) was “significant decrease”, the survival (B16 tumors; NTR001 as single agent (30 mg/kg PO week on/off or 5 mg/kg drinking water), FIG. 6) was 0-20% and the weight loss [1] was “significant decrease”.
